Results taken from patent EP1397353B1, “2-(2,6-DISUBSTITUTED PHENYL)-4-ARYL-5-ALKYL-1,3-OXAZOLINE COMPOUNDS USEFUL AS INSECTICIDES AND ACARICIDES” (Dow AgroSciences LLC, priority 2001, dated 2003).

Key:
Type in all cases: in vivo
[1] = test system: cabbage looper (Trichoplusia ni); test: Insecticidal test for cabbage looper (leaf-dip, cabbage leaf discs); conditions: dipped cabbage leaf discs, 2nd instar larvae, 5 days, rating of % Control; for pest or weed control at 400 ppm: Trichoplusia ni, foliar, 120 h, read-out: CL, activity at 400 ppm against cabbage looper
Procedure: (§1) Insecticidal test for tobacco budworm (Heliothis virescens), beet armyworm (Spodoptera exigua), and cabbage looper (Trichoplusia ni).
(§2) To prepare test solution, the test compound was formulated at 400 ppm in 7.5 mL of 2 acetone: 1 tap water. 250 µL of the test solution was pipetted upon the surface of 8 mL of lepidopteran diet (modified Shorey) contained in each of five one-ounce plastic cups (one cup = 1 replication). […] After airdrying, the treated leaf discs were placed individually into one-ounce plastic cups. Each dried, treated cotton cotyledon disc was infested with a 2nd instar tobacco budworm larva, and each cabbage leaf disc was infested with a 2nd instar cabbage looper larva. Cups containing the treated substrates and larvae were capped and then held in a growth chamber at 25 °C, 50-55% RH, and 14 hr light: 10 hr dark for 5 days.

[2] = test system: Sweetpotato Whitefly (Bemisia tabacia); test: Insecticidal test for sweetpotato whitefly (spray on cotton plants); conditions: 200 ppm spray, large nymphs counted after 13 days, rating of % Control; for pest or weed control at 200 ppm: Bemisia, 312 h, read-out: WF, activity at 200 ppm against whitefly
Procedure: Insecticidal test for Sweetpotato Whitefly (Bemisia tabacia)
Four mg of each test compound were dissolved by adding 4 mL of a 90:10 acetone:ethanol solvent mixture to the vial containing the sample compound. This solution was added to 16 mL of water containing 0.05% Tween 20 surfactant to produce 20 mL of a 200 ppm spray solution.
Five-week-old cotton plants reared in a greenhouse were stripped of all foliage except for the two uppermost true leaves that were greater than 5 cm in diameter. These plants were then placed into a laboratory colony of whiteflies for two days for oviposition by the colony females. All whiteflies were then removed from the test plants with pressurized air. The spray solution was then applied to the test plants with a hand-held syringe fitted with hollow cone nozzle. One mL spray solution was applied to each leaf top and bottom for a total of 4 mL per plant. Four replications of each test compound utilized a total of 16 mL spray solution. Plants were air dried and then placed in a holding chamber (28 °C and 60% RH) for 13 days. Compound efficacy was evaluated by counting, under an illuminated magnifying glass, the number of large nymphs (3rd-4th instar) per leaf
Percent control based on reduction of large nymphs of a test compound compared to solution-only (no test compound) sprayed plants is reported in Table 1-8.

[3] = test system: beet armyworm (Spodoptera exigua); test: Insecticidal test for beet armyworm (treated lepidopteran diet); conditions: 2nd instar larvae, 5 days, rating of % Control; for pest or weed control at 400 ppm: Spodoptera exigua, 120 h, read-out: BAW, activity at 400 ppm against beet armyworm
Procedure: as §1, §2

[4] = test system: two-spotted spider mite (Tetranychus urticae); test: Insecticidal test for two-spotted spider mite, ovicide method; conditions: for pest or weed control: Tetranychus urticae, read-out: SM, activity against two-spotted spider mite
Procedure: Insecticidal test for two-spotted spider mite (Tetranychus urticae)
Ten adult female two-spotted spider mites were placed on eight 2.2 cm leaf discs of cotton leaf, allowed to oviposit over 24 hours, and thereafter removed. […] Discs were placed on an agar substrate and held at 24 °C and 90% RH for 6 days.

[5] = test system: tobacco budworm (Heliothis virescens); test: Insecticidal test for tobacco budworm (leaf-dip, cotton cotyledon discs); conditions: dipped cotton cotyledon discs, 2nd instar larvae, 5 days, rating of % Control; for pest or weed control at 400 ppm: Heliothis virescens, 120 h, read-out: TBW, activity at 400 ppm against tobacco budworm
Procedure: as §1, §2

[6] = test system: cotton aphid (Aphis gossypii); test: Insecticidal test for cotton aphid (spray on infested squash cotyledons); conditions: 50 ppm spray, all life stages, 3 days, rating of % Control
Procedure: Insecticidal test for cotton aphid (Aphis gossypii)
To prepare spray solutions, 1 mg of each test compound was dissolved into 1 mL of a 90:10 acetone:ethanol solvent. This 1 mL of chemical solution was added to 19 mL of water containing 0.05% Tween 20 surfactant to produce a 50 ppm spray solution.
Squash cotyledons were infested with cotton aphid (all life stages)16-20 hours prior to application of spray solution. The solution was sprayed on both sides of each infested squash cotyledon (0.5 mL x 2 each side) with a sweeping action until runoff. The plants were allowed to air dry and held for 3 days in a controlled room at 26 °C and 40% RH after which time the test was graded. Grading was by actual count using a dissecting microscope and comparison of test counts to the untreated check.

[7] = foliar, 144 h, ovicide method, cotton leaf discs, 6 days, rating of % Control
[8] = ovicide method, cotton leaf discs, 6 days, rating of % Control

Row | SMILES | pest or weed control at 400 ppm [1] [%] | pest or weed control at 400 ppm [3] [%] | pest or weed control [4, 7] [%] | pest or weed control at 400 ppm [5] [%] | CA, activity at 50 ppm against cotton aphid [6] | further results
1 | Cc1cc(-c2ccc(OC(F)(F)F)cc2)ccc1[C@H]1N=C(c2c(F)cccc2F)O[C@H]1C (mixture of isomers) [Compound 40, (4R,5S)- and (4S,5R)-2-(2,6-difluorophenyl)-5-methyl-4[3-methyl-4'-(trifluoromethoxy)-1,1'-biphenyl-4-yl]-4,5-dihydro-1,3-oxazole] | 90 to 100 | 90 to 100 | 80 to 89 | 90 to 100 |  | pest or weed control at 200 ppm [2]: < 50%
2 | C[C@H]1OC(c2c(F)cccc2F)=N[C@@H]1c1ccc(I)cc1 (mixture of isomers) [Compound 22, (4R, 5R)- and (4S,5S)-4-(4-iodophenyl)-2-(2,6-difluorophenyl)-5-methyl-4,5-dihydro-1,3-oxazole] | < 50 | 90 to 100 | 90 to 100 |  | A (90-100) | 
3 | C[C@@H]1OC(c2c(F)cccc2F)=N[C@@H]1c1ccc(-c2ccc(OC(F)(F)F)cc2)cc1 (stereo in doubt) [Compound 51, (4R,5S)-2-(2,6-difluorophenyl)-5-methyl-4-[4'-(trifluoromethoxy)-1,1'-biphenyl-4-yl]-4,5-dihydro-1,3-oxazole] | 90 to 100 | 90 to 100 | 90 to 100 | 80 to 89 | F (less than 50) | 
4 | CC(C)c1ccc(-c2ccc([C@@H]3N=C(c4c(F)cccc4F)O[C@@H]3C)cc2)cc1 (mixture of isomers) [Compound 7, (4S,5R)- and (4R,5S)-2-(2,6-difluorophenyl)-4-(4'-isopropyl-1,1'-biphenyl-4-yl)-5-methyl-4,5-dihydro-1,3-oxazole] | 90 to 100 | 90 to 100 | 60 to 69 | 90 to 100 |  | pest or weed control at 200 ppm [2]: 90 to 100%
5 | C[C@@H]1OC(c2c(F)cccc2F)=N[C@H]1c1ccc(Br)cc1 [Compound 46, (4S,5S)-4-(4-bromophenyl)-2-(2,6-difluorophenyl)-5-methyl-4,5 dihydro-1,3-oxazole] |  |  | 90 to 100 |  | A (90-100) | 
6 | C[C@H]1OC(c2c(F)cccc2F)=N[C@@H]1c1ccc(-c2ccc(OC(F)(F)F)cc2)cc1 [Compound 53, (4R,5R)-2-(2,6-difluorophenyl)-5-methyl-4-[4'-(trifluoromethoxy)-1,1'-biphenyl-4-yl]-4,5-dihydro-1,3-oxazole] |  |  |  |  | F (less than 50) | CL, activity at 400 ppm against cabbage looper [1]: A (90-100); BAW, activity at 400 ppm against beet armyworm [3]: A (90-100); SM, activity at 2.5 ppm against two-spotted spider mite [4, 8]: A (90-100); TBW, activity at 400 ppm against tobacco budworm [5]: B (80-89)
7 | Cc1cc(Br)ccc1[C@H]1N=C(c2c(F)cccc2F)O[C@H]1C (mixture of isomers) [Compound 38, (4R,5S)- and (4S,5R)-4-(4-bromo-2-methylphenyl)-2-(2,6-difluorophenyl)-5-methyl-4,5-dihydro-1,3-oxazole] |  |  | 60 to 69 |  |  | pest or weed control at 200 ppm [2]: < 50%
8 | C[C@@H]1OC(c2c(F)cccc2F)=N[C@@H]1c1ccc(I)cc1 (racemic) [Compound 1, (4R,5S)- and (4S,5R)-4-(4-iodorphenyl)-2-(2,6-difluorophenyl)-5-methyl-4,5-dihydro-1,3-oxazole] |  |  |  |  | A (90-100) | SM, activity at 2.5 ppm against two-spotted spider mite ([4]; foliar, 144 h): A (90-100)
9 | Cc1cc(-c2ccc(C(F)(F)F)cc2)ccc1[C@@H]1N=C(c2c(F)cccc2F)O[C@H]1C (mixture of isomers) [Compound 43, (4S,5S) - and (4R,5R)-2-(2,6-difluorophenyl)-5-methyl-4-[3-methyl-4'-(trifluoromethyl)-1,1'-biphenyl-4-yl]-4,5-dihydro-1,3-oxazole] | 90 to 100 | 90 to 100 |  | 90 to 100 |  | pest or weed control at 200 ppm [2]: < 50%
10 | C[C@H]1OC(c2c(F)cccc2F)=N[C@@H]1c1ccc(-c2ccc(OC(F)(F)F)cc2)cc1 (mixture of isomers) [Compound 27, (4R,5R)- and (4S,5S)-2-(2,6-difluorophenyl)-4-(4'-trifluoromethoxy-1,1'-biphenyl-4-yl)-5-methyl-4,5-dihydro-1,3-oxazole] | 90 to 100 | 90 to 100 | 90 to 100 | 80 to 89 | E (50-59) | 
11 | C[C@H]1OC(c2c(F)cccc2F)=N[C@@H]1c1ccc(Br)cc1 (mixture of isomers) [Compound 24, (4R,5R)- and (4S,5S)-4-(4-bromophenyl)-2-(2,6-difluorophenyl)-5-methyl-4,5-dihydro-1,3-oxazole] | < 50 |  | 90 to 100 | < 50 | A (90-100) | 
12 | C[C@@H]1OC(c2c(F)cccc2Cl)=N[C@@H]1c1ccc(-c2ccc(C(F)(F)F)cc2)cc1 (mixture of isomers) [Compound 4, (4R,5S)- and (4S,5R)-2-(2-chloro-6-fluorophenyl)-5-methyl-4-[4'-(trifluoromethyl)-1,1'-biphenyl-4-yl]-4,5-dihydro-1,3-oxazole] | 90 to 100 | 90 to 100 | 90 to 100 | 90 to 100 | A (90-100) | 
13 | C[C@H]1OC(c2c(F)cccc2F)=N[C@H]1c1ccc(-c2ccc(OC(F)(F)F)cc2)cc1 (stereo in doubt) [Compound 49, (4S,5R)-2-(2,6-difluorophenyl)-5-methyl-4-[4'-(trifluoromethoxy)-1,1'-biphenyl-4-yl]-4,5-dihydro-1,3-oxazole] |  |  |  |  |  | CL, activity at 400 ppm against cabbage looper [1]: A (90-100); WF, activity at 200 ppm against whitefly [2]: B (80-89); BAW, activity at 400 ppm against beet armyworm [3]: A (90-100); SM, activity at 2.5 ppm against two-spotted spider mite [4, 8]: A (90-100)
14 | CCOc1ccc(-c2ccc([C@H]3N=C(c4c(F)cccc4F)O[C@H]3C)c(C)c2)cc1 (mixture of isomers) [Compound 41, (4R,5S)- and (4S,5R)-2-(2,6-difluorophenyl)-4-(4'-ethoxy-3-methyl-1,1'-biphenyl-4-yl)-5-methyl-4,5-dihydro-1,3-oxazole] | 90 to 100 | 90 to 100 | 60 to 69 | 90 to 100 |  | 
15 | C[C@@H]1OC(c2c(F)cccc2F)=N[C@H]1c1ccc(-c2ccc(C(F)(F)F)cc2)cc1 (mixture of isomers) [Compound 26, (4S,5S)- and (4R,5R)-2-(2,6-difluorophenyl)-5-methyl-4-[4'-(trifluoromethyl)-1,1'-biphenyl-4-yl]-4,5-dihydro-1,3-oxazole] | 90 to 100 | 90 to 100 | 90 to 100 | 90 to 100 |  | 
